Like-named read-outs stand apart in the source and are kept apart here.

The subject of series [1] is carrageenan induced edema. Nature of the series: Anti-inflammatory activity, carrageenan induced edema (paw volume, plethysmometer). The series is classed as in vivo, mice. The settings on record: for inhibition in vivo at 5 mg/kg: Mus musculus, po, dose 5 mg/kg b.m (p.o.), n = 6, read-out: Edema inhibition (Means ± E.M); for anti-inflammatory activity (in words): grading in the structure activity discussion. The protocol:
(§1) Female albino mice (16–18 g) and Sprague Dawley […] (100 g) obtained from the Theodor Bilharz Research Institute (TBRI, Giza city, Egypt) were used. Approval of the institutional animal ethical committee for the animal studies was obtained from the Office of Environmental Health and Radiation Safety, ACUC Protocol 1096-5. The animals were maintained according to accepted standards of animal care.
Newly synthesized thienopyrimidine derivatives were dissolved in 0.5% carboxymethyl cellulose (CMC) as a homogeneous solution and administered […]. One hundred and eight […] were divided into eighteen groups, each group consisting of six animals. Anti-inflammatory activity of the compounds was studied in mice using carrageenan induced edema. A suspension of the tested compound and the reference drug, indomethacin in aqueous solution was administered orally at a dose 5 mg/kg. Control animals were treated with 0.5% CMC only. After 30 min, 0.1 mL of freshly prepared 1.0% carrageenan solution (in formol saline) was injected into the sub-plantar region of the right hind paw according to Hernandez-Perez. The right paw volume was measured using a digital plethysmometer (Model 7150, Ugo Basile, Varese, Italy), directly before and after 1, 2, 3 h, intervals after administration of the tested compounds.
Background: The carrageenan paw model is a standard test of acute inflammation.

A short description of series [2]: Acute toxicity (LD50). The settings on record: mouse, in vivo, ip; male adult mice, i.p., mortality after 24 h, graphical method. Here is the method: To determine the acute toxicity of the compounds, the LD50 values for compounds 2, 3, 6, 9 and 10 were determined by injecting different gradual increased doses of the tested compounds into male adult mice, then calculating the dose corresponding to 50% animal death (Table 3).
Groups of male adult mice, each of six animals, were injected i.p. with graded doses of each of the test compounds. The percentage of mortality in each group of animals was determined 24 h, after injection. Computation of LD50 was processed by a graphical method.

Series [3] deals with Gastric Ulceration in mice. Briefly: Ulcerogenic activity (gastric ulceration in mice). It is filed as in vivo. The settings on record: oral, 6 h; for mean ulcer lesions ± SEM: n = 6. Here is the method: as §1
Seventy-two mice were divided into twelve groups. Ulcerogenic activity was evaluated after oral administration of the tested compounds or indomethacin at doses of 10, 50, and 100 mg/kg. Control mice received 0.5% CMC. Food but not water was removed 24 h before administration of the tested compounds. After 6 h, the mice were sacrificed; the stomach was removed and opened along the greater curvature, washed with distilled water and cleaned gently by dipping in saline. The mucosa damage for each stomach was examined using a stereoscopic microscope and compared with the reference drug indomethacin according to the reported procedure.

One may read the LD50 as the dose at which mortality reaches 50%. Read a high LD50 as a less toxic substance. With `COc1ccc(-c2nc(NN)c3c4c(sc3n2)CCCCCC4)cc1` [Compound 2, 2-(4-Methoxyphenyl)-4-hydrazinocycloocteno[4.5]thieno[2.3-d]pyrimidine], the inhibition in vivo at 5 mg/kg came out at 42.3 ± 1.1% in series [1] (1 h), 49.3 ± 1.1% in series [1] (2 h) and 57.1 ± 1.4% in series [1] (3 h). Moreover, the “anti-inflammatory activity (in words)” value in series [1] was “high”. The LD50 at 24 h in series [2] came out at 2514 ± 12 mg/kg. In addition, the “number of mice lesions bigger than 0.5 mm in length per total no. of mice” value (from here on “number … per total no. of mice”) in series [3] (dose 10 mg/kg), in series [3] (dose 50 mg/kg) and in series [3] (dose 100 mg/kg) was 0/6 each time. For the same compound, the “mean ulcer lesions ± SEM” value in series [3] (dose 10 mg/kg), in series [3] (dose 50 mg/kg) and in series [3] (dose 100 mg/kg) was 0 mm each time.

On to `COc1ccc(-c2nc3sc4c(c3c3nnc(CC#N)n23)CCCCCC4)cc1` [Compound 3, 5-(4-Methoxyphenyl)-3-cyanomethylcycloocteno[4.5]thieno[2.3-d]triazolo[1,2,4]-[4,5-a]pyrimidine], for which the inhibition in vivo at 5 mg/kg in series [1] (1 h) was found to be 37.2 ± 1.3%; in series [1] (2 h) it was 46.3 ± 1.5%; in series [1] (3 h) it was 54.4 ± 1.1%. In addition, the “anti-inflammatory activity (in words)” value in series [1] is “high”. In series [2], this compound had an LD50 at 24 h of 2131 ± 13 mg/kg.

Take `COc1ccc(C2=Nc3sc4c(c3C3=NCC(=O)N23)CCCCCC4)cc1` [Compound 4]: the figures for the inhibition in vivo at 5 mg/kg in series [1] (1 h), in series [1] (2 h) and in series [1] (3 h) were 16.5 ± 1.3%, 17.2 ± 1.1% and 19.3 ± 1.2%, respectively. Besides, in series [1], the “anti-inflammatory activity (in words)” value is on record as “weak”.

Take `COc1ccc(-c2nc3sc4c(c3c3nc5ccccc5c(=O)n23)CCCCCC4)cc1` [Compound 5, 8-(4-Methoxyphenyl)-6-oxo-cycloocteno[4.5]thino[2,3-d]pyrimidino[4.3-b]quinazoline]: the inhibition in vivo at 5 mg/kg in series [1] (1 h) was 11.7 ± 1.1%; in series [1] (2 h), 13.2 ± 1.2%; in series [1] (3 h), 15.2 ± 1.5%. For the same compound, the “anti-inflammatory activity (in words)” value in series [1] is given as “weak”.

Take `COc1ccc(-c2nc3sc4c(c3c3nnnn23)CCCCCC4)cc1` [Compound 6, 5-(4-Methoxyphenyl)-cycloocteno[4.5]thieno[2.3-d]tetrazolo[4.5-e]pyrimidine]: the inhibition in vivo at 5 mg/kg in series [1] (1 h) was determined as 34.5 ± 1.2%; in series [1] (2 h), 42.1 ± 1.3%; in series [1] (3 h) it was 48.2 ± 1.2%. Also, the “anti-inflammatory activity (in words)” value in series [1] is reported as “high”. The LD50 at 24 h in series [2] was 2047 ± 12 mg/kg.

Take `COc1ccc(-c2nc3sc4c(c3c3n[nH]c(=O)c(=O)n23)CCCCCC4)cc1` [Compound 7, 6-(4-Methoxyphenyl)-3,4-dioxo-2H-cycloocteno[4.5]thieno[2,3-d]triazino[1,2.4]-[3,4-a]pyrimidine]: the inhibition in vivo at 5 mg/kg in series [1] (1 h) was 20.8 ± 1.4%; in series [1] (2 h), 22.3 ± 1.3%; in series [1] (3 h) it was 25.1 ± 1.4%. Further, the “anti-inflammatory activity (in words)” value in series [1] is on record as “moderate”.

For `COc1ccc(C2=Nc3sc4c(c3C3=NNC(=O)CN23)CCCCCC4)cc1` [Compound 8, 6-(4-Methoxyphenyl)-3-oxo-2,4-dihydrocycloocteno[4,5]thieno[2,3-d]triazino-[1,2,4][3,4-a]pyrimidine], the inhibition in vivo at 5 mg/kg in series [1] (1 h) is 21.3 ± 1.2%; in series [1] (2 h) it was 24.6 ± 1.1%; in series [1] (3 h), 26.5 ± 1.2%. In addition, in series [1], the “anti-inflammatory activity (in words)” value was “moderate”.

On to `COc1ccc(-c2nc3sc4c(c3c3n[nH]c(=O)n23)CCCCCC4)cc1` [Compound 9, 5-(4-Methoxy)phenyl-3-oxo-2H-cycloocteno[4,5]thieno[2,3-d][1,2,4]triazolo[4,5-a]pyrimidine], for which the inhibition in vivo at 5 mg/kg in series [1] (1 h) was 31.2 ± 1.2%; in series [1] (2 h) it was 35.1 ± 1.5%; in series [1] (3 h), 40.2 ± 1.6%. In addition, in series [1], the “anti-inflammatory activity (in words)” value was “high”. In series [2], the LD50 at 24 h is 1832 ± 12 mg/kg.

`COc1ccc(-c2nc3sc4c(c3c3nnc(C)n23)CCCCCC4)cc1` [Compound 10, 5-(4-Methoxyphenyl)-3-methyl-2H-cycloocteno[4,5]thieno[2,3-d][1,2,4]triazolo-[4,5-a] pyrimidine]: the inhibition in vivo at 5 mg/kg in series [1] (1 h) is 39.1 ± 1.5%; in series [1] (2 h) it was 48.4 ± 1.2%; in series [1] (3 h) it was 55.6 ± 1.1%. For the same compound, in series [1], the “anti-inflammatory activity (in words)” value is on record as “high”. The compound also had an LD50 at 24 h in series [2] of 2341 ± 11 mg/kg. For the same compound, the “number … per total no. of mice” value in series [3] (dose 10 mg/kg), in series [3] (dose 50 mg/kg) and in series [3] (dose 100 mg/kg) was 0/6 each time. The “mean ulcer lesions ± SEM” value in series [3] (dose 10 mg/kg), in series [3] (dose 50 mg/kg) and in series [3] (dose 100 mg/kg) was 0 mm each time.

In the case of `COc1ccc(-c2nc3sc4c(c3c3nnc(Nc5ccccc5)n23)CCCCCC4)cc1` [Compound 12], the inhibition in vivo at 5 mg/kg in series [1] (1 h) was determined as 19.4 ± 1.6%; in series [1] (2 h), 21.3 ± 1.3%; in series [1] (3 h), 23.3 ± 1.2%. For the same compound, the “anti-inflammatory activity (in words)” value in series [1] is given as “moderate”.

`COc1ccc(-c2nc3sc4c(c3c3nnc(-c5ccccc5)n23)CCCCCC4)cc1` [Compound 14, 5-(4-Methoxyphenyl)-4-phenylcycloocteno[4,5]thieno[2,3-d][1,2,4]triazolo[4,5-c]pyrimidine]: the inhibition in vivo at 5 mg/kg was 7.3 ± 1.1% in series [1] (1 h) and 11.2 ± 1.5% in series [1] (3 h). In addition, the “anti-inflammatory activity (in words)” value in series [1] is given as “weak”.

In the case of `COc1ccc2c(c1)c(CC(=O)O)c(C)n2C(=O)c1ccc(Cl)cc1` [Indomethacin, reference compound], the results for the inhibition in vivo at 5 mg/kg in series [1] (1 h), in series [1] (2 h) and in series [1] (3 h) were 44.7 ± 1.2%, 52.4 ± 1.2% and 61.2 ± 1.3%, respectively. In series [2], this compound gave an LD50 at 24 h of 1817 ± 15 mg/kg. The “number … per total no. of mice” value is listed as 3/6 in series [3] (dose 10 mg/kg), 5/6 in series [3] (dose 50 mg/kg) and 6/6 in series [3] (dose 100 mg/kg). For the same compound, the “mean ulcer lesions ± SEM” value is given as 1.4 ± 0.2 mm in series [3] (dose 10 mg/kg), 1.9 ± 0.2 mm in series [3] (dose 50 mg/kg) and 2.1 ± 0.2 mm in series [3] (dose 100 mg/kg).

For the origin of these results see publication PMC6269734, “Synthesis and Pharmacological Activities of Some New Triazolo- and Tetrazolopyrimidine Derivatives” (Molecules, 2013).
